Measurements reported in US20120201749A1, “NP-1 Antagonists and Their Therapeutic Use” (priority 2009, published 2012).
Several values for one entry are separate records, joined by “and”; a condition that tells them apart may be missing. Equal values may be shown once.

Tests used:
[1] = test system: human non-small-cell lung carcinoma A549 cells; assay: Lung cancer in vivo study, A549 xenografts in nude mice
Procedure: For the efficacy study, human non-small-cell lung carcinoma A549 cells were cultured in growth medium RPMI 1640. The cells at 90% confluence were detached, counted and suspended in PBS to make the final concentration of cells 5×10^7/ml for inoculation.
The compound administration began two weeks after A549 cells were inoculated in female Balb/c nude mice. Compound 58 was dosed intraperitoneally at 80 mg/kg daily for a period of 2 weeks. Tumour volume was monitored by measuring the length and the width of the tumour using an electronic digital caliper (Fisher Scientific) daily for a period of 2 weeks. Tumour volumes were calculated using a formula (length×width^2/2). At the end of the experiment, tumours were dissected and weighed.

NP-1 = NP-1 (Homo sapiens, UniProt O14786); assay: Biotinylated-VEGF-A165 (bt-VEGF-A165) binding to NP-1; settings: for inhibition at 3 µM: 3 μM compound, read-out: Screen (% inhibition at 3 μM); for inhibition at 30 µM: read-out: Screen (% inhibition at 30 μM)
NP-1, sequence (O14786 22-923): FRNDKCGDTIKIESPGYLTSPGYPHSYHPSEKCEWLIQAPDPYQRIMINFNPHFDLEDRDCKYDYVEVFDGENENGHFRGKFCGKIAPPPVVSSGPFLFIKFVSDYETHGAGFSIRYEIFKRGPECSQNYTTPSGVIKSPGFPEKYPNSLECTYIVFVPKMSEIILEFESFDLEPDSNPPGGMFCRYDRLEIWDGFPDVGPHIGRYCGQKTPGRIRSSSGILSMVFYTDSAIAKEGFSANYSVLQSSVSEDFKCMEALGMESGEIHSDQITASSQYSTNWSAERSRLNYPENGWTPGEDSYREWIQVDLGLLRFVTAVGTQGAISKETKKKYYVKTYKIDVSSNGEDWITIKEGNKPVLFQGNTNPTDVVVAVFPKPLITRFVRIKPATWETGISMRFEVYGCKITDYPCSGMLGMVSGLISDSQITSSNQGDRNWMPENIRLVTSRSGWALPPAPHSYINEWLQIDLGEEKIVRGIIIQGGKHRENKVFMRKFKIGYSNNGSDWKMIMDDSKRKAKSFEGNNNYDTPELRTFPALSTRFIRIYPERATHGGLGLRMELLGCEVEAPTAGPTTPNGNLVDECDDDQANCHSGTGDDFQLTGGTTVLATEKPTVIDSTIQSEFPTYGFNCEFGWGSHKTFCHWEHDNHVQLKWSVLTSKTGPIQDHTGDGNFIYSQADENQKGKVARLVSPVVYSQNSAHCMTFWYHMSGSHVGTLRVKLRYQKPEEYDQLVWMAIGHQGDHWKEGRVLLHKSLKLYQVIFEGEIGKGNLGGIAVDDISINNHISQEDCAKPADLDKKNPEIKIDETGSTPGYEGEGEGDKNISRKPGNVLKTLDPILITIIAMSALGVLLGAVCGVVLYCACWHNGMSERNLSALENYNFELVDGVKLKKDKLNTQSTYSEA
Method in brief: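 Both formats: compound with bt-VEGF-A165 for 2 h at room temperature, detection via streptavidin-HRP at A450 (ref A595). Cell-based: Ad.NP-1-transfected DU145 cells, 2 nM tracer, nonspecific from 100-fold unlabelled VEGF-A165. Cell-free: NP-1-coated wells (3 μg/ml), 0.25 nM tracer, nonspecific from uncoated wells.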

SMILES	IC50 (NP-1) [nM]	inhibition at 3 µM (NP-1) [%]	inhibition at 30 µM (NP-1; 30 μM compound) [%]	further results
N=C(N)NCCC[C@H](NC(=O)c1sccc1NS(=O)(=O)c1cccc(NCc2csc(N3CCNCC3)n2)c1)C(=O)O [Compound 58, (S)-5-guanidino-2-[(3-{3-[(2-piperazin-1-yl-thiazol-4-ylmethyl)-amino]-benzenesulfonylamino}-thiophene-2-carbonyl]-amino]-pentanoic acid]	159	72	96	reduction of the rate of tumour growth ([1]; 80 mg/kg intraperitoneally daily for 2 weeks, A549 tumours, p=0.017 by linear regression test): 52% and 50%; tumour weight reduced by ([1]; 80 mg/kg intraperitoneally daily for 2 weeks, tumours weighed at end of experiment, p=0.04 by Mann Whitney test): 27%; effect on rate of tumour growth (in words) ([1]; preclinical model of lung cancer): significantly reduced the rate of tumour growth; evidence of toxicity ([1]; single daily dose for two weeks, murine model of lung cancer): No evidence of toxicity
N=C(N)NCCC[C@H](NC(=O)c1sccc1NS(=O)(=O)c1cccc(NCc2csc(C3CCNCC3)n2)c1)C(=O)O [Compound 56, (S)-5-guanidino-2-[(3-{3-[(2-piperidin-4-yl-thiazol-4-ylmethyl)-amino]-benzenesulfonylamino}-thiophene-2-carbonyl)-amino]-pentanoic acid]		57	89	
N=C(N)NCCC[C@H](NC(=O)c1sccc1NS(=O)(=O)c1cc(-c2ccccc2CN2CCN(Cc3ccncc3)CC2)cc2c1OCC2)C(=O)O [Compound 8, (S)-5-Guanidino-2-[(3-{5-[2-(4-pyridin-4-ylmethyl-piperazin-1-ylmethyl)-phenyl]-2,3-dihydro-benzofuran-7-sulfonylamino}-thiophene-2-carbonyl)-amino]-pentanoic acid]	1800		90	
COC(=O)C1CCN(Cc2cccc(-c3cc4c(c(S(=O)(=O)Nc5ccsc5C(=O)N[C@@H](CCCNC(=N)N)C(=O)O)c3)OCC4)c2)CC1 [Compound 7, 1-(3-{7-[2-((S)-1-Carboxy-4-guanidino-butylcarbamoyl)-thiophen-3-ylsulfamoyl]-2,3-dihydro-benzofuran-5-yl}-benzyl)-piperidine-4-carboxylic acid methyl ester]	5	94		
N=C(N)NCCC[C@H](NC(=O)c1sccc1NS(=O)(=O)c1cc(-c2cccc(CN3CCNCC3)c2)cc2c1OCC2)C(=O)O [Compound 33, (S)-5-Guanidino-2-({3-[5-(3-piperazin-1-ylmethyl-phenyl)-2,3-dihydro-benzofuran-7-sulfonylamino]-thiophene-2-carbonyl}-amino)-pentanoic acid]	365	81	100	
N=C(N)NCCC[C@H](NC(=O)c1sccc1NS(=O)(=O)c1cccc(NCc2csc(N3CCN(Cc4cccnc4)CC3)n2)c1)C(=O)O [Compound 59, (S)-5-guanidino-2-{[3-(3-{[2-(4-pyridin-3-ylmethyl-piperazin-1-yl)-thiazol-4-ylmethyl]-amino}-benzenesulfonylamino)-thiophene-2-carbonyl]-amino}-pentanoic acid]		58	94	
COc1ccccc1-c1nc(CNc2cccc(S(=O)(=O)Nc3ccsc3C(=O)N[C@@H](CCCNC(=N)N)C(=O)O)c2)no1 [Compound 69, (S)-5-Guanidino-2-{[3-(3-{[5-(2-methyoxy-phenyl)-[1,2,4]oxadiazol-3-ylmethyl]-amino}-benzenesulfonylamino)-thiophene-2-carbonyl]-amino}-pentanoic acid]		37	79	
N=C(N)NCCC[C@H](NC(=O)c1sccc1NS(=O)(=O)c1cccc(NCc2csc(N3CCC(N4CCOCC4)CC3)n2)c1)C(=O)O [Compound 60, (S)-5-guanidino-2-{[3-(3-{[2-(4-morpholin-4-yl-piperidin-1-yl)-thiazol-4-ylmethyl]-amino}-benzenesulfonylamino)-thiophene-2-carbonyl]-amino}-pentanoic acid]	319	70	96	
N=C(N)NCCC[C@H](NC(=O)c1sccc1NS(=O)(=O)c1cc(-c2cccc(CN3CCN(Cc4ccccn4)CC3)c2)cc2c1OCC2)C(=O)O [Compound 29, (S)-5-Guanidino-2-[(3-{5-[3-(4-pyridin-2-ylmethyl-piperazin-1-ylmethyl)-phenyl]-2,3-dihydro-benzofuran-7-sulfonylamino}-thiophene-2-carbonyl)-amino]-pentanoic acid]	686	79	100	
N=C(N)NCCC[C@H](NC(=O)c1sccc1NS(=O)(=O)c1cccc(NCc2csc(N3CCN(c4cnccn4)CC3)n2)c1)C(=O)O [Compound 74]		55		

The next lines start with results.

IC50 (NP-1) [nM]	inhibition at 3 µM (NP-1) [%]	inhibition at 30 µM (NP-1; 30 μM compound) [%]	SMILES	further results
	67	100	N=C(N)NCCC[C@H](NC(=O)c1sccc1NS(=O)(=O)c1cc(-c2ccccc2CNCc2ncc[nH]2)cc2c1OCC2)C(=O)O [Compound 24, (S)-5-Guanidino-2-({3-[5-(2-{[(1H-imidazol-2-ylmethyl)-amino]-methyl}-phenyl)-2,3-dihydro-benzofuran-7-sulfonylamino]-thiophene-2-carbonyl}-amino)-pentanoic acid]	
	96		N=C(N)NCCC[C@H](NC(=O)c1sccc1NS(=O)(=O)c1cc(-c2ccccc2CN2CCC(CC(=O)O)CC2)cc2c1OCC2)C(=O)O [Compound 2, (S)-2-[(3-{5-[2-(4-Carboxymethyl-piperidin-1-ylmethyl)-phenyl]-2,3-dihydro-benzofuran-7-sulfonylamino}-thiophene-2-carbonyl)-amino]-5-guanidino-pentanoic acid]	
130	86		N=C(N)NCCC[C@H](NC(=O)c1sccc1NS(=O)(=O)c1cc(-c2ccccc2CNCCc2cn[nH]c2)cc2c1OCC2)C(=O)O [Compound 47, (S)-5-Guanidino-2-({3-[5-(2-{[2-(1H-pyrazol-4-yl)-ethylamino]-methyl}-phenyl)-2,3-dihydro-benzofuran-7-sulfonylamino]-thiophene-2-carbonyl}-amino)-pentanoic acid]	
	56		N=C(N)NCCC[C@H](NC(=O)c1sccc1NS(=O)(=O)c1cc(-c2ccccc2CN2CCN(Cc3ccncc3)CC2)cc2c1OCC2)C(=O)O [Compound 17, (S)-5-Guanidino-2-[(3-{5-[2-(4-pyridin-4-ylmethyl-piperazin-1-ylmethyl)-phenyl]-2,3-dihydro-benzofuran-7-sulfonylamino}-thiophene-2-carbonyl)-amino]-pentanoic acid]	Screen (% inhibition at 30 μM) (NP-1; 30 μM compound, 30 µM): 94%
637	68	90	N=C(N)NCCC[C@H](NC(=O)c1sccc1NS(=O)(=O)c1cc(-c2cccc(CNCc3ncc[nH]3)c2)cc2c1OCC2)C(=O)O [Compound 37]	
